How the values were obtained:
Format in all cases: in vivo
[1] = tested on: Cabbage Looper (Trichoplusia ni) ("CL"); assay: Bioassay on cabbage looper (CL), 128-well diet tray assay; settings: for mortality at 50 µg/cm2: 168 h, 50 μg/cm^2 on artificial diet, second instar CL larvae, 25° C., five to seven days, average of eight wells, read-out: CL % Control (or Mortality) rating; for pest or weed control at 50 µg/cm2: Table ABC (FB), activity rating class, read-out: CL (Biological Results, Insect species)
Outline: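 Second-instar larvae (one to five per well) placed on artificial diet surface-treated with 50 μg/cm^2 compound in 90:10 acetone-water, dried before infestation. Held 25 °C, 14:10 light-dark for five to seven days; percent mortality scored per well and averaged over eight wells.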

[2] = tested on: Beet Armyworm (Spodoptera exigua) ("BAW"); assay: Bioassay on beet armyworm (BAW), 128-well diet tray assay; settings: for mortality at 50 µg/cm2: 168 h, 50 μg/cm^2 on artificial diet, second instar BAW larvae, 25° C., five to seven days, average of eight wells, read-out: BAW % Control (or Mortality) rating; for pest or weed control at 50 µg/cm2: Table ABC (FB), activity rating class, read-out: BAW (Biological Results, Insect species)
Outline: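 Second-instar larvae (one to five per well) were placed on artificial diet surface-treated with 50 μg/cm^2 compound applied in 90:10 acetone-water and dried, eight wells per compound. Held at 25° C., 14:10 light-dark for five to seven days; percent mortality was scored per well and averaged over the eight wells.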

[3] = tested on: Yellow Fever Mosquito "YFM" (Aedes aegypti); settings: for YFM % Control (or Mortality) rating: about 1 day-old larvae, 96-well plate, room temperature, 3 days; for YFM (Biological Results, Insect species): Table ABC (FB), activity rating class
Protocol: Certain molecules disclosed in this document were tested against YFM using procedures described in the following paragraph. In the reporting of the results, the “YFM Rating Table” was used (See Table Section).
Master plates containing 400 μg of a molecule dissolved in 100 μL of dimethyl sulfoxide (DMSO) (equivalent to a 4000 ppm solution) are used. A master plate of assembled molecules contains 15 μL per well. To this plate, 135 μL of a 90:10 wateracetone mixture is added to each well. A robot (Biomek® NXP Laboratory Automation Workstation) is programmed to dispense 15 μL aspirations from the master plate into an empty 96-well shallow plate (“daughter” plate). There are 6 reps (“daughter” plates) created per master. The created daughter plates are then immediately infested with YFM larvae.
The day before plates are to be treated, mosquito eggs are placed in Millipore water containing liver powder to begin hatching (4 g. into 400 mL). After the daughter plates are created using the robot, they are infested with 220 μL of the liver powder/larval mosquito mixture (about 1 day-old larvae). After plates are infested with mosquito larvae, a non-evaporative lid is used to cover the plate to reduce drying. Plates are held at room temperature for 3 days prior to grading. After 3 days, each well is observed and scored based on mortality.

Compound	mortality at 50 µg/cm2 [1]	mortality at 50 µg/cm2 [2]	YFM % Control (or Mortality) rating [3]	pest or weed control at 50 µg/cm2 [1]	pest or weed control at 50 µg/cm2 [2]	YFM (Biological Results, Insect species) [3]
CC(C)c1cc(F)ccc1N1C(=O)CS/C1=N\C(=O)NCCCCc1ccc(-c2ncn(-c3ccc(OC(F)(F)F)cc3)n2)cc1 [P155. P1162, (Z)-1-(3-(4-fluoro-2-isopropylphenyl)-4-oxothiazolidin-2-ylidene)-3-(4-(4-(1-(4-(trifluoromethoxy)phenyl)-1H-1,2,4-triazol-3-yl)phenyl)butyl)urea]	50 to 100%	50 to 100%	A (80-100)	–	–	–
CS/C(=N\C(=O)NCCc1ccc(-c2ncn(-c3ccc(OC(F)(F)F)cc3)n2)cc1)Nc1cc(C)ccc1C(C)C [FB65, (Z)-methyl N-(2-isopropyl-5-methylphenyl)-N′-((4-(1-(4-(trifluoromethoxy)phenyl)-1H-1,2,4-triazol-3-yl)phenethyl)carbamoyl)carbamimidothioate]	–	–	–	50 to 100%	50 to 100%	A (80-100)
CCc1cccc(C)c1N1C(=O)CS/C1=N\C(=O)NC(C)Cc1ccc(-c2ncn(-c3ccc(OC(F)(F)F)cc3)n2)cc1 (stereo not drawn) [P42, (Z)-1-(3-(2-ethyl-1-methylphenyl)-4-oxothiazolidin-2-ylidene)-3-(1-(4-(1-(4-(trifluoromethoxy)phenyl)-1H-1,2,4-triazol-3-yl)phenyl)propan-2-yl)urea]	50 to 100%	50 to 100%	A (80-100)	–	–	–
Cc1ccc(C(C)C)c(N2C(=O)CS/C2=N\C(=O)NC2(Cc3ccc(-c4ncn(-c5ccc(OC(F)(F)F)cc5)n4)cc3)CC2)c1 [FB63, (Z)-1-(3-(2-isopropyl-5-methylphenyl)-4-oxothiazolidin-2-ylidene)-3-(1-(4-(1-(4-(trifluoromethoxy)phenyl)-1H-1,2,4-triazol-3-yl)benzyl)cyclopropyl)urea]	–	–	–	50 to 100%	50 to 100%	A (80-100)
Cc1cccc(C)c1N1/C(=N/C(=O)NCCc2ccc(-c3ncn(-c4ccc(OC(F)(F)F)cc4)n3)cc2)SCC1C (stereo not drawn) [FB59, (Z)-1-(3-(2,6-dimethylphenyl)-4-methylthiazolidin-2-ylidene)-3-(4-(1-(4-(trifluoromethoxy)phenyl)-1H-1,2,4-triazol-3-yl)phenethyl)urea]	–	–	–	50 to 100%	50 to 100%	A (80-100)
CC(C)c1ccc(Cl)cc1N1C(=O)CS/C1=N\C(=O)NCC(C)c1ccc(-c2ncn(-c3ccc(OC(F)(F)F)cc3)n2)cc1 (stereo not drawn) [FB49, (Z)-1-(3-(5-chloro-2-isopropylphenyl)-4-oxothiazolidin-2-ylidene)-3-(2-(4-(1-(4-(trifluoromethoxy)phenyl)-1H-1,2,4-triazol-2,4-triazol-3-yl)phenyl)propyl)urea]	–	–	–	50 to 100%	50 to 100%	A (80-100)
CCc1ccc(C)cc1N1C(=O)CS/C1=N\C(=O)NCCc1ccc(-c2ncn(-c3ccc(OC(F)(F)F)cc3)n2)cc1 [P49, (Z)-1-(3-(2-ethyl-5-methylphenyl)-4-oxothiazolidin-2-ylidene)-3-(4-(1-(4-(trifluoromethoxy)phenyl)-1H-1,2,4-triazol-3-yl)phenethyl)urea]	50 to 100%	50 to 100%	A (80-100)	–	–	–
CCc1cccc(C)c1N1C(=O)CS/C1=N\C(=O)NCCCCc1ccc(-c2ncn(-c3ccc(OC(F)(F)F)cc3)n2)cc1 [P153, (Z)-1-(3-(2-ethyl-6-methylphenyl)-4-oxothiazolidin-2-ylidene)-3-(4-(4-(1-(4-(trifluoromethoxy)phenyl)-1H-1,2,4-triazol-3-yl)phenyl)butyl)urea]	50 to 100%	0%	D (No activity noticed in this bioassay)	–	–	–
CCCc1ccc(C)cc1N1C(=O)CS/C1=N\C(=O)NCCc1ccc(-c2ncn(-c3ccc(OC(F)(F)F)cc3)n2)cc1 [P29, (Z)-1-(3-(5-methyl-2-propylphenyl)-4-oxothiazolidin-2-ylidene)-3-(4-(1-(4-(trifluoromethoxy)phenyl)-1H-1,2,4-triazol-3-yl)phenethyl)urea]	50 to 100%	50 to 100%	A (80-100)	–	–	–
CC(Cc1ccc(-c2ncn(-c3ccc(OC(F)(F)F)cc3)n2)cc1)NC(=O)/N=C1\SCC(=O)N1c1cc(Cl)ccc1C(C)C (stereo not drawn) [FB42]	–	–	–	50 to 100%	50 to 100%	A (80-100)
CCN(CCc1ccc(-c2ncn(-c3ccc(OC(F)(F)F)cc3)n2)cc1)C(=O)/N=C1\SCC(=O)N1c1cc(C)ccc1C(C)C [FB54, (Z)-1-ethyl-3-(3-(2-isopropyl-5-methylphenyl)-4-oxothiazolidin-2-ylidene)-1-(4-(1-(4-(trifluoromethoxy)phenyl)-1H-1,2,4-triazol-3-yl)phenethyl)urea]	–	–	–	50 to 100%	50 to 100%	A (80-100)
Cc1ccc(C(C)C)c(N2C(=O)CS/C2=N\C(=O)NCCCc2ccc(-c3ncn(-c4ccc(OC(F)(F)F)cc4)n3)cc2)c1 [F20, (Z)-1-(3-(2-isopropyl-5-methylphenyl)-4-oxothiazolidin-2-ylidene)-3-(3-(4-(1-(4-(trifluoromethoxy)phenyl)-1H-1,2,4-triazol-3-yl)phenyl)propyl)urea]	50 to 100%	50 to 100%	A (80-100)	–	–	–
CCc1cccc(C)c1N1C(=O)CS/C1=N\C(=O)NCCc1ccc(-c2ncn(-c3ccc(OC(F)(F)F)cc3)n2)cc1 [P50]	50 to 100%	50 to 100%	A (80-100)	–	–	–
CC(Cc1ccc(-c2ncn(-c3ccc(OC(F)(F)F)cc3)n2)cc1)NC(=O)/N=C1\SCC(=O)N1c1ccc(F)cc1C(C)C (stereo not drawn) [P33, (Z)-1-(3-(4-fluoro-2-isopropylphenyl)-4-oxothiazolidin-2-ylidene)-3-(1-(4-(1-(4-(trifluoromethoxy)phenyl)-1H-1,2,4-triazol-3-yl)phenyl)propan-2-yl)urea]	50 to 100%	50 to 100%	A (80-100)	–	–	–
CC(C)c1ccccc1N1C(=O)CS/C1=N\C(=O)NCCCCc1ccc(-c2ncn(-c3ccc(OC(F)(F)F)cc3)n2)cc1 [P146, P208, (Z)-1-(3-(2-isopropylphenyl)-4-oxothiazolidin-2-ylidene)-3-(4-(4-(1-(4-(trifluoromethoxy)phenyl)-1H-1,2,4-triazol-3-yl)phenyl)butyl)urea]	50 to 100%	50 to 100%	A (80-100)	–	–	–
CCc1cccc(C)c1N1C(=O)CS/C1=N\C(=O)NCCCc1ccc(-c2ncn(-c3ccc(OC(F)(F)F)cc3)n2)cc1 [P101, (Z)-1-(3-(2-ethyl-6-methylphenyl)-4-oxothiazolidin-2-ylidene)-3-(3-(4-(1-(4-(trifluoromethoxy)phenyl)-1H-1,2,4-triazol-3-yl)phenyl)propyl)urea]	50 to 100%	0 to 50%	D (No activity noticed in this bioassay)	–	–	–
COc1ccc(C(C)C)c(N2C(=O)CS/C2=N\C(=O)NCCc2ccc(-c3ncn(-c4ccc(C(F)(F)F)cc4)n3)cc2)c1 [P53, (Z)-1-(3-(2-isopropyl-5-methoxyphenyl)-4-oxothiazolidin-2-ylidene)-3-(4-(4-(1-(4-trifluoromethyl)phenyl)-1H-1,2,4-triazol-3-yl)phenethyl)urea]	50 to 100%	50 to 100%	A (80-100)	–	–	–
Cc1ccc(C(C)C)c(N2/C(=N/C(=O)NCCc3ccc(-c4ncn(-c5ccc(OC(F)(F)F)cc5)n4)cc3)SCC2(C)O)c1 (stereo not drawn) [FB67, (Z)-1-(4-hydroxy-3-(2-isopropyl-5-methylphenyl)-4-methylthiazolidin-2-ylidene)-3-(4-(1-(4-(trifluoromethoxy)phenyl)-1H-1,2,4-triazol-3-yl)phenethyl)urea]	–	–	–	50 to 100%	50 to 100%	A (80-100)
Cc1cccc(C)c1N1C(=O)CS/C1=N\C(=O)NCCCCc1ccc(-c2ncn(-c3ccc(OC(F)(F)F)cc3)n2)cc1 [P152, P1481, (Z)-1-(3-(2,6-dimethylphenyl)-4-oxothiazolidin-2-ylidene)-3-(4-(4-(1-(4-(trifluoromethoxy)phenyl)-1H-1,2,4-triazol-3-yl)phenyl)butyl)urea]	50 to 100%	0%	A (80-100)	–	–	–
